Source: US8592451B2, “Reversible nondepolarizing neuromuscular blockade agents and methods for their use” (Cornell University, priority 2009, dated 2013)

Legend:
[1] = L-cysteine adduction kinetics in vitro (HPLC); assay type: physicochemical; conditions: pH 7.4, 37° C.; for NMBA peak area / [NMBA] remaining / ln* = ln (([NMBA]t[L-cysteine]t=0)/([NMBA]t=0[L-cysteine]t)): CW 011 1000 μg/mL + 1.05 equiv. L-cysteine
Procedure: In a second experiment, to evaluate degradation in the presence of L-cysteine, buffered solutions (pH 7.4) of gantacurium, CW 002 or CW 011 were freshly prepared at 37° C. to give experimental concentrations of 1000 μg/mL (CW 002 and CW 011) and 200 μg/mL (gantacurium), after addition to and mixing with a 5% Molar excess of L-cysteine at time=0.
The concentration of neuromuscular blocking agent/parent compound remaining at specified time points after mixing was determined by high performance liquid chromatography. The concentration of blocking agent at each time point was determined from a separately prepared reaction mixture, due to the rapid rate of L-cysteine adduction. The reaction rate constant for the second order reaction of each neuromuscular blockade agent (NMBA) with L-cysteine was derived by plotting the natural log of ([NMBA]t[L-cysteine]t=0/[NMBA]t=0[L-cysteine]t) vs. time.
Concentrations selected were 200, 100 and 50 μg/ml which are approximately proportional to the relative potencies (ED 95) of gantacurium, CW 002 and CW 011 respectively. A degradation (adduction) pathway in the presence of L-cysteine for each of the three compounds was proposed.
The reaction of L-cysteine with CW 002, CW 011 or gantacurium is first order in the case of both the neuromuscular blockade agent (NMBA) and L-cysteine, represented by the rate equation (1). d[Adduct]/dt=−d[NMBA]/dt=ka[NMBA][L-cysteine] (1)
Calculation of the L-cysteine adduction half time requires experimental derivation of the reaction rate constant, ka, for each compound. The initial concentrations of NMBA and L-cysteine are unequal in the experiments conducted for this study, thus integration of equation 1 gives equation 2, where [NMBA]0 is the NMBA concentration at time equals 0 and [NMBA]t is the NMBA concentration at a time point, t.
[formula] A plot of the ln(([NMBA]t [L-cysteine]0)/([NMBA]0 [L-cysteine]t)) versus time (ln* vs. t) gives a line, with slope equal to ka([NMBA]0−[L-cysteine]0). An adduction reaction half time can be calculated by solving for ka to be used in equation 3.
NMBA standard solutions were prepared by a method similar to that used to prepare hydrolysis standards. The standards were prepared at 1000 μg/mL for CW 002 and CW 011 and 200 μg/mL for gantacurium.
Solutions used for determination of NMBA concentration at the reported times for CW 002 and CW 011 were prepared as follows: L-cysteine hydrochloride monohydrate was charged to a volumetric flask in de-ionized water. A 5 mL aliquot of the L-cysteine solution (1.05 equiv. L-cysteine with respect to NMBA) was transferred by volumetric pipette to a flask held at 37.0±0.3° C. CW 002 or CW 011 was then charged to a separate 25 mL volumetric flask and diluted to volume with pH 7.4 phosphate buffer at 37.0° C. The NMBA solution was then immediately transferred to the flask containing L-cysteine to give an initial NMBA concentration of 1000 μg/mL. Solutions used for determination of gantacurium concentration versus time were prepared in a similar manner to give an initial concentration of 200 μg/mL. T=0 was defined as the time of addition of NMBA solution to L-cysteine solution. The times listed in the results table show the point of HPLC sample injection following mixing of L-cysteine and NMBA at time=0 (Table 1, below).
Rate constants were calculated using equation (3) and the slope of the trend line derived from each data set. The strong linear correlation of the data within each set supports the use of second order kinetics for analysis of the cysteine adduction reactions.
Reaction half times were calculated using equation 4 and the experimentally determined rate constants. The initial NMBA concentrations were chosen to reflect the relative potency observed in vivo.

[2] = system: twitch of the extensor digitorum; assay: Reversal of neuromuscular blockade by L-cysteine or neostigmine in anesthetized rhesus monkeys; assay type: in vivo, rhesus monkeys (Macaca mulatta)
Procedure: A control dose of 0.15 mg/kg CW 002 was allowed to recover spontaneously to TOF 110-120%. A second dose was given 60 minutes later, followed one minute afterwards by either neostigmine (0.05 mg/kg+atropine 0.05 mg/kg) or L-cysteine (10, 20, 30 or 50 mg/kg). Total duration and 5-95% recovery intervals were compared during spontaneous recovery vs. antagonism by L-cysteine or reversal by neostigmine.
This series of paired comparisons was designed to generate dose-response data comparing spontaneous recovery of high doses of CW 011 (from 4 to 64× ED95) versus immediate antagonism at +1 min by an optimal dose of L-cysteine (50 mg/kg), previously determined during studies of immediate antagonism of CW 002. This experiment was done to explore the limits of chemical antagonism by L-cysteine of these olefinic diester neuromuscular blocking drugs, using CW 011 as a typical example with an intermediate duration of action. Five groups of animals first received a control dose of CW 011 at 4, 8, 16, 32 or 64× ED 95 (0.1 to 1.6 mg/kg). Sixty minutes after spontaneous recovery of the control dose to TOF 110-120%, the same dose was repeated, followed 1 min later by L-cysteine (50 mg/kg). Total duration of action and 5-95% recovery interval were compared during spontaneous recovery and following antagonism by L-cysteine
The reversal of neuromuscular blockade by cysteine (5-50 mg/kg i.v.) was studied. Reversal was tested as follows: full paralysis was induced by injection of a dose of approximately 2-6× ED 95 of the compound in question. After spontaneous recovery of this dose, a second identical dose was given 15-30 min later. Cysteine was then given at +1 min after injection of the neuromuscular blocking drug at a point where no twitch was apparent (“immediate reversal”) or at the beginning of recovery from neuromuscular blockade at two percent twitch height (“classical reversal”). Comparisons were made among compounds with respect to rapidity and ease of cysteine reversal, by comparing 5-95% recovery times, and total durations of action (injection to 95% twitch recovery). Spontaneous recovery was compared with cysteine-accelerated recovery. […]

COc1ccc(C[C@@H]2c3cc(OC)c(OC)cc3CC[N@@+]2(C)CCCOC(=O)/C=C\C(=O)OCCC[N@+]2(C)CCc3cc(OC)c(OC)cc3[C@H]2Cc2cc(OC)c(OC)c(OC)c2)cc1OC [CW 011]
NMBA peak area ([1]; Trial 1, 123 Sec): 2587.0 mAU's | [NMBA] remaining ([1]; Trial 1, 123 Sec): 228 µM | ln* = ln (([NMBA]t[L-cysteine]t=0)/([NMBA]t=0[L-cysteine]t)) ([1]; Trial 1, 123 Sec): −0.248 | NMBA peak area ([1]; Trial 2, 132 Sec): 2500.5 mAU's | [NMBA] remaining ([1]; Trial 2, 132 Sec): 221 µM | ln* = ln (([NMBA]t[L-cysteine]t=0)/([NMBA]t=0[L-cysteine]t)) ([1]; Trial 2, 132 Sec): −0.256 | NMBA peak area ([1]; Trial 3, 143 Sec): 2293.0 mAU's | [NMBA] remaining ([1]; Trial 3, 143 Sec): 202 µM | ln* = ln (([NMBA]t[L-cysteine]t=0)/([NMBA]t=0[L-cysteine]t)) ([1]; Trial 3, 143 Sec): −0.284 | NMBA peak area ([1]; Trial 4, 182 Sec): 1765.4 mAU's | [NMBA] remaining ([1]; Trial 4, 182 Sec): 155 µM | ln* = ln (([NMBA]t[L-cysteine]t=0)/([NMBA]t=0[L-cysteine]t)) ([1]; Trial 4, 182 Sec): −0.378 | Plot Slope (ln* vs. time) ([1]; L-cysteine adduction, data of Table 1): −0.0023 | ka, second order rate constant of L-cysteine adduction [1]: 24.7 M⁻¹ s⁻¹ | half-life at 50 μg/ml ([1]; pH 7.4 phosphate buffer with L-cysteine, calculated at [NMBA]0 0.0000493 M (50 μg/ml), read-out: L-cysteine adduction reaction half time t1/2): 13.7 min | time to reversal of blockade with cysteine (FIG. 2B) ([2]; CW 011, all cysteine concentrations tested (10 mg/kg to 50 mg/kg as worded elsewhere in the source)): less than 6 minutes | time from cysteine administration to beginning of reversal (FIG. 2B) ([2]; CW 011, higher cysteine doses): 2 to 3 min | time to spontaneous reversal of blockade (FIG. 2) ([2]; CW 011, no reversal agent): more than 12 minutes | reversibility of neuromuscular blockade by thiol compounds ([2]; cysteine (L or D) or glutathione): reversible | effect of neostigmine given immediately after the blocking drug ([2]; immediate reversal): ineffective | spontaneous reversal rate (FIG. 2A) ([2]; increasing doses of CW 011 (4 to 64× ED95), no reversal agent): decreases with increasing CW 011 dose | classical antagonism of neuromuscular blockade by neostigmine ([2]; neostigmine given at beginning of spontaneous recovery, e.g. at 2% twitch height): showed antagonism
